One compound from patent US8987250B2 (Gilead Sciences, Inc., priority 2012, dated 2015) can be followed below.

What is called EC50 is the concentration giving half of the maximal effect.

For one data set, the system named is HIV-IIIb. Nature of the data set: Test A: Antiviral Assay in MT4 Cells. It counts as cell-based. The note with it: Human immunodeficiency virus 1, IIIB, MT4, 120 h, Table 2; MT-4 cells infected with HIV-IIIb, 5 days of incubation, CellTiter-Glo; read-out: EC50. In a few lines:
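MT-4 cells pre-infected with HIV-IIIb (0.004 m.o.i.) at 37 °C, then exposed to 3-fold serial compound dilutions (10 concentrations, quadruplicate) in RPMI 1640/10% FBS. After 5 days at 37 °C, viability read by CellTiter-Glo luminescence.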
(ATP-based viability assays read luminescence as a measure of living cells.)

The subject of another data set is human liver microsomes. Description: Test B: Metabolic Stability Assay with Human Liver Microsomes. It counts as in vitro ADME. The note with it: 1 uM compound, 1 mg/mL human liver microsomal proteins, 37° C., 0-60 minutes; half-life class. An excerpt:
Test B: Metabolic Stability Assay with Human Liver Microsomes
Effective viral suppression in the HIV infected patient requires that the antiviral drug persists in the patient's body at concentrations exceeding the minimum concentration required to inhibit viral proliferation. One of the factors controlling the drug levels after dosing is metabolic conversion. The liver is one site of drug metabolism. Approximately 60% of marketed drugs are cleared by hepatic metabolism (McGinnity D F et al. (2004) Drug Metab Dispos 32; 1247-1253). Liver microsomes are subcellular fractions which contain membrane bound drug metabolising enzymes. Human liver microsomes provide a convenient and concentrated source of the key liver metabolic enzymes (e.g., cytochromes P450, UDP-glucuronosyltransferases, and many others) and can be used to predict the metabolic stability of drug candidates (e.g., agents).
Cluster tubes containing 500 uL of 1 uM compound with 1 mg/mL human liver microsomal proteins (BD Biosciences, BD452117)/50 mM K-phosphate buffer pH7.4/NADPH regenerating system/and UDP-glucuronosyltransferase cofactors, were incubated on the Precision-2000 workstation at 37° C. for 0, 10, 25, 60 minutes. The reactions were quenched with 100 uL of 0.2% formic acid in 90% ACN; containing 50 nM of an internal standard. The samples were analyzed on LC/MS/MS instrument (Q-Trap). Metabolic stabilities in microsomal fractions and hepatocytes were determined by measuring the rate of disappearance of the compound. Data (% of parent remaining) were plotted on a semi logarithmic scale and fitted using an exponential fit.
(Microsomes from liver hold many membrane-bound enzymes, among them those of drug oxidation.)

On to `Cc1cc2nc(-c3ccnc(N4CCN(C5COC5)CC4)n3)sc2c(-c2ccc(Cl)cc2)c1[C@H](OC(C)(C)C)C(=O)O` [Compound 336, (S)-2-tert-butoxy-2-(7-(4-chlorophenyl)-5-methyl-2-(2-(4-(oxetan-3-yl)piperazin-1-yl)pyrimidin-4-yl)benzo[d]thiazol-6-yl)acetic acid], for which the concentration giving a half-maximal response (EC50) in the data set on HIV-IIIb came to 2 nM. In the data set with human liver microsomes, the “Human Microsomal stability” value is given as “A (a human microsomal stability half-life of greater than or equal to 300 minutes)”.
